Data reported in patent US20160194274A1, “PHENANTHRENE DERIVATIVES FOR USE AS MEDICAMENTS” (VALENTIA BIOPHARMA, priority 2012, published 2016).

What was measured:
FAM-(CUG)10 RNA = test: Gel retardation assay (fluorescence EMSA) with FAM-(CUG)10; format: binding
Procedure: FIG. 6. Study of the binding of some compounds of Formula I (VLT002, VLT025 and VLT026) to FAM-(CUG)10 (repeat tract present in DM1, HDL2, SCA8 diseases) by means of gel retardation assays.
Fluorescence Electrophoretic Mobility Shift Assay to test RNA-compound binding. Briefly, an aliquot of carboxyfluorescein (FAM)-CUG10 RNA (DM1, HDL2, SCA8; see FIG. 6) was heated at 70° C. for 5 min and diluted to 300 nM. The binding reaction with compounds was then carried out as described in (Garcia-Lopez A et al. Proc. Natl. Acad. Sci. USA. 108(29):11866-71 (2011)). The reaction mix was loaded onto 8% polyacrylamide nondenaturing gels, and electrophoresis was conducted at 4° C. in TB 1× for approximately 30 min at 240V, followed by fluorescence visualization. Quantification of the free RNA band intensity was carried out using the ImageJ software. A non-linear regression analysis was used to calculate EC50, based on a total of three experimental replicates. Same approach was developed with (FAM)-CCUG8 (DM2), CAG10 (SCA3), CGG10 (FXTAS), GGGGCC5 (ALS/FSD), UGGAA6 (SCA31) probes (see FIG. 9).

[1] = tested on: ribonuclear foci in MyoD transformed fibroblasts derived from DM1 patients (>300 CTG repeats); test: FISH detection of aberrant ribonuclear foci in human DM1 fibroblasts; format: cell-based; conditions: 24 h treatment, vs no treatment
Procedure: FIG. 1. Quantification of aberrant ribonuclear foci (DM1 disease hallmark) in human DM1 fibroblasts. Treatments with the compounds of Formula I were performed (VLT002, VLT015, VLT025, VLT024, VLT042, VLT040, VLT023, VLT026, VLT048, VLT045, VLT043, VLT049, VLT051 VLT053 and VLT056). (A) Number (medium) of foci/nuclei (No treatment vs. compound treatment). (B) Number of cells without foci (No treatment vs. compound treatment). n=100 minimum number of cells counted. T-Student test: * indicates p-value <0.05 ** p-value p<0.005 *** p-value p<0.0005.
After screening identification of the compounds of the invention (see FIG. 10), main validation was done using Fluorescence In Situ Hybridization (FISH) detection of aberrant aggregation of ribonuclear foci in cell lines from DM1 patients (see FIG. 1) and in DM1 Drosophila model (see FIG. 2) (Garcia-Lopez et al., Proc. Natl. Acad. Sci. USA. 108(29):11866-71 (2011)). Briefly, regarding human cells, it was used MyoD transformed fibroblasts derived from clinically diagnosed DM1 patients (>300 CTG repeats) routinely growing in DMEM supplemented with 10% heat-inactivated fetal bovine serum and maintained at 37° C. in a humidified incubator containing 5% CO2. To detect ribonuclear foci, cells were cultured over cover-slides in flat bottomed 24-well plates, after 24 h compounds of the invention were added to the cells at desiderate concentration, 24 h later in situ hybridization was done by fixing with 4% paraformaldehyde (PFA) 15 min at room temperature, and washed and stored in 70% ethanol. Cells were rehydrated with PBS and pre-hybridized 10 min at room temperature with a pre-hybridization buffer (formamide 30%, 2× saline-sodium citrate buffer (SSC)). Hybridization was performed in a light-proof wet chamber using the same pre-hybridization buffer supplemented with 0.02% bovine serum albumin (BSA), 1 mg/ml yeast tRNA (Sigma), 2 mM sodium (meta)vanadate, 1 mg/ml sperm DNA, 10% dextran sulfate and 1 ng/μl RNase free HPCL-purified Cy3-labeled (CAG)10 RNA. After hybridization cells were washed 2×15 minutes at 45° C. with the pre-hybridization buffer and washed with 1×PBS at room temperature. Slides were mounted with Vectashield solution with DAPI and number of foci by cell and number of cells with/without foci (see FIG. 1) were counted in a minimum of 100 cells for each treatment and concentration tested with a 63× objective in a Leica microscope. Same FISH approach was performed in Drosophila DM1 flies, where thoraces were embedded in OCT and transversal sections were taken with a Leica CM 15105 cryomicrotome. Sections were processed for in situ hybridization and counting for number of foci by cell with the same Cy3-labeled (CAG)10 probe (see FIG. 2).

(CUG)23 RNA hairpin = test: 2-Aminopurine fluorescence assay of hairpin RNA unfolding; format: biochemical; conditions: for modification of the hairpin loops formed by the CUG repeats (2-AP fluorescence): (CUG)23 RNA, dose-range
Procedure: FIG. 7. […] Measurements of the fluorescence emitted (Y-axis), measured as relative fluorescence units (RFU), by 2-aminopurine in a (CUG)23 RNA (1 μM) in the presence of different compounds (dose-range approach), relative to the fluorescence emitted by the free RNA. […] These effects were not observed when incubating the RNA with DMSO (not shown), or with the small molecule pentamidine, published as a compound able to disrupt MBNL1 binding to CUG hairpins (Warf M B et al. Proc. Natl. Acad. Sci. USA 106:18551-56 (2009)). * indicates p-value <0.05 ** p-value <0.005 *** p-value p<0.0005.
Aminopurine Fluorescence assay to detect hairpin double strand RNA unfolding. An aliquot of 2-aminopurine (2AP)-CUG23 RNA (1 μM in binding buffer) was heated at 90° C. for 3 min, placed on ice, and further diluted to 30 nM in a final volume of 1 mL in binding buffer.

Compound | binding to FAM-CUG10 (FAM-(CUG)10 RNA) | aberrant ribonuclear foci: number of foci/nuclei (A) and/or number of cells without foci (B) [1] | modification of the hairpin loops formed by the CUG repeats (2-AP fluorescence) ((CUG)23 RNA hairpin) | decreases in the fluorescence of 2-AP ((CUG)23 RNA hairpin; change to more structured double-stranded)
CN(C)CCc1cc2c(c3c1ccc1ccccc13)OCO2 [VLT002, Stephenanthrine] | bind to FAM-CUG10 | significant reduction | modify the hairpin loops | 
C[N+](C)(C)CCc1cc2c(c3c1ccc1ccccc13)OCO2 [VLT025] | bind to FAM-CUG10 | significant reduction | modify the hairpin loops | noteworthy decreases
